Drawing on the METLIN SMRT retention time set (Domingo-Almenara et al. 2019), this text covers RP-LC retention time for 59 molecules.

This data set can be described thus: gradient 5% acetonitrile 3 min, to 50% in 2 min, to 85% in 15 min, held 3 min, 100 µL/min. The settings on record: column: Zorbax Extend-C18 2.1 x 50 mm; eluents: water / acetonitrile, 0.1% formic acid. A digest of the protocol: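 A Zorbax Extend-C18 column (2.1 × 50 mm, 1.8 μm) run at 100 μL/min with water and acetonitrile, both containing 0.1% formic acid, separated mixtures of ~100 pure standards. The HPLC was coupled to a quadrupole time-of-flight mass spectrometer operated in positive and negative ionization mode, with dead and dwell volumes of 40 μL and 900 μL. Each retention time was taken from a computationally picked adduct peak that was then manually inspected.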
The molecule `COc1cc(-c2nc3ncccn3c2Nc2cccc(C(F)(F)F)c2)ccc1O` displayed an RP-LC retention time of 700 s. The same measure for `CCN1c2ccc(C)cc2C(=O)NC12CCN(C(=O)c1ccc(F)c(F)c1)CC2`: 826 s; for `CCS(=O)(=O)Nc1ccc(C2(C(=O)NCc3ccc(F)cc3F)CCCCC2)cc1`: 972 s. The same measure for `Cc1ccc(S(=O)(=O)N2CCC3(CC2)NCCN=C3NCc2cc(F)cc(F)c2)cc1`: 734 s. Next, `CCn1nccc1-c1cccc(-c2noc(-c3ccc(CS(=O)(=O)c4ccccc4)cc3)n2)c1`: 1160 s. On to `O=C(CN1CCN(Cc2ccc(F)cc2)C1=O)N1CCN(C2CCCCC2)CC1`, for which the RP-LC retention time is 613 s. Turning to `O=C(c1ccccc1)N1CCN(c2nc(CN3CCOCC3)cs2)CC1`, the RP-LC retention time worked out at 852 s.

`Cc1cc(C)n(-c2ccnc(N3CCC(C(=O)NCCN4CCOCC4)CC3)n2)n1` gave an RP-LC retention time of 607 s.

Regarding `O=C(CN1C(=O)NC2(CCCCC2)C1=O)NCc1cccc(Br)c1`, the RP-LC retention time was 772 s. In turn, `O=C(c1ccc(OCCCc2cnc[nH]2)cc1)C1CC1` registered an RP-LC retention time of 680 s. Next, `CCCCN1CCN(C(=O)COc2ccc(NC(=O)C3CC3)cn2)CC1`: 570 s. Next, `Cc1ccc2[nH]cc(CCN3CC(C(=O)NC4CCCCCC4)CC3=O)c2c1` (centres undefined): 875 s; `Cc1ccc2[nH]cc(CCNC(=O)CCc3nnc(C(=O)Nc4ccccc4)s3)c2c1`: 875 s. Next, `Cc1ccnc(N2CCC(C(=O)Nc3ccc(Br)cc3)CC2)n1`: 784 s; `CCCN1C(=O)COc2ccc(-c3noc(-c4ccccc4C)n3)cc21`: 1290 s. Consider `COc1ccc(N2CCn3c2nn(CC(=O)NCc2ccco2)c(=O)c3=O)cc1`, for which the RP-LC retention time was found to be 634 s. Next, `CCOC(=O)Cc1ccc(NC(=O)NC2CCN(c3ccccc3)C2=O)cc1` (centres undefined): 742 s.

Molecule `CCc1ccccc1NC(=O)C1CCCN1S(=O)(=O)c1cc2c(cc1C)NC(=O)CO2` (centres undefined) had an RP-LC retention time of 821 s. Turning to `Cn1c(=O)oc2cc(-c3noc(-c4cc(F)ccc4Cl)n3)ccc21`, the RP-LC retention time turned out to be 1090 s. The same measure for `COc1ccc(-n2c(=O)n(C)c(=O)c3cc(C(=O)NCc4ccccn4)cnc32)cc1`: 600 s; for `CSc1cccc(NC(=O)N2CCN(Cc3nc4ccc(C)cc4o3)CC2)c1`: 776 s.

On to `CN(C)S(=O)(=O)c1ccc(-c2nnc(C(=O)NCc3ccc(Br)cc3)o2)cc1`, for which the RP-LC retention time is 912 s. Next, `CCOC(=O)c1cnc2c(cnn2CC)c1NN=C(C)C`: 1010 s. Next, `CCc1nc(-c2cc(S(=O)(=O)N3CCC(C(=O)NCc4ccco4)CC3)c(C)s2)no1`: 932 s; `O=C(NCCc1n[nH]c(Cc2cccc(F)c2)n1)c1ccc2c(c1)OCO2`: 673 s. The same measure for `COc1ccc(-c2csc(Cc3nc(-c4cccc(Cl)c4)no3)n2)cc1OC`: 1160 s. Regarding `CN1CCCn2nc(C3CCN(S(=O)(=O)c4ccc5c(c4)OCCO5)CC3)cc2C1=O`, the RP-LC retention time came to 718 s. For `Cc1cc(C)cc(N2CCC(NC(=O)c3cccc(C#N)c3)C2=O)c1` (centres undefined), the RP-LC retention time worked out at 863 s. Next, `COC1CCC12CCN(C(=O)CC(C)C)CC2` (centres undefined): 810 s. Next, `COc1ccccc1CN1CCc2nc(N3CCN(c4ccccc4OC)CC3)ncc2C1`: 687 s; `Cc1ccc(S(=O)(=O)c2ccccc2[N+](=O)[O-])cc1`: 874 s. Next, `Cc1ccccc1-c1nc(C2CCN(S(=O)(=O)c3ccc(F)cc3)CC2)no1`: 1180 s. `CCOC(=O)C1CCCN(Cc2nc(-c3cc(OC)c(OC)c(OC)c3)no2)C1` (centres undefined) returned an RP-LC retention time of 774 s.

In turn, `Cc1cc(C)cc(-n2ccnc(NC(=O)Nc3cccc(F)c3)c2=O)c1` gave an RP-LC retention time of 1020 s.

`CCN1CCN(c2cc(C)c3cc(NC(=S)N4CCN(c5ccccc5F)CC4)ccc3n2)CC1` came in with an RP-LC retention time of 620 s. The same measure for `CCOc1ccc(C(=O)N2CCC3(CC2)N=C(c2ccccc2)NO3)cc1`: 799 s; for `Cn1cc(CN2CC(F)(F)C[C@H]2COc2ccncc2)c2ccccc21`: 634 s. Next, `O=C1CCCc2c1cc(C(=O)Nc1ccc(F)cc1F)c(=O)n2-c1ccc(F)cc1`: 785 s; `CC(C)n1cnc2ccc(-c3noc(-c4cccc(F)c4)n3)cc21`: 810 s. `CN(CC1CCOC1)C(=O)c1cc(F)cc(F)c1` (centres undefined) came in with an RP-LC retention time of 690 s. In the case of `CCn1nccc1C(=O)N1CCCC1c1cccc(F)c1` (centres undefined), the RP-LC retention time turned out to be 812 s. Next, `Cc1cc(C(=O)N2CCC(c3nc4ccccc4s3)CC2)no1`: 763 s; `O=S(=O)(Cc1ccc(Cl)cc1)N1CCC(CN2CCCCCC2)CC1`: 683 s. Next, `CC(C)n1cnc(S(=O)(=O)N2CCC(C(=O)NCc3ccc(N(C)C)cc3)CC2)c1`: 589 s; `O=C(CCc1csc2nc(-c3ccc(Cl)cc3)cn12)Nc1nccs1`: 774 s.

`NC(=O)c1oc2ccccc2c1NC(=O)c1coc2ccccc2c1=O` registered an RP-LC retention time of 769 s. The same measure for `CS(=O)(=O)N(C1CCOCC1)C1CN(C(=O)Cc2c[nH]c3ccccc23)C1`: 667 s; for `Cc1sc(-c2nnc(C3CC3)o2)cc1NC(=O)C1CC1`: 819 s; for `CCCc1nnsc1C(=O)Nc1nnc(-c2cc3cccc(OC)c3o2)o1`: 1170 s. Next, `CC(=O)Nc1cc(C(=O)NCC(C)C)c2ccc(C)nc2c1`: 574 s. As to `Cc1ccc2c(c1)N(S(C)(=O)=O)CCC(C(=O)Nc1ccc(OC(C)C)cc1)O2` (centres undefined), the RP-LC retention time stood at 976 s. For the molecule `Cc1nnc(N2CCC(C(=O)N3CCN(c4ccccn4)CC3)CC2)c2nn(-c3ccccc3)c(C)c12`, the RP-LC retention time is 569 s.

Turning to `Cc1ccccc1-c1noc(C2CCCN2C(=O)Nc2cccc(Cl)c2)n1` (centres undefined), the RP-LC retention time worked out at 1080 s. The same measure for `CCOC(=O)c1[nH]c(C)c(CCC(=O)Nc2ccc3c(c2)OCO3)c1C`: 819 s; for `COc1ccccc1NC(=O)Cn1nc2cc(C)nc(-c3cccc(F)c3)n2c1=O`: 826 s.

Molecule `COc1ccc(N2C(=O)C3N=NN(Cc4nc(-c5ccc(OC(C)C)cc5)no4)C3C2=O)cc1OC` (centres undefined) registered an RP-LC retention time of 841 s.

In turn, `O=C(NCc1csc(C2CCN(C(=O)c3ccc(Cl)cc3)CC2)n1)C1CC1` registered an RP-LC retention time of 725 s. Next, `O=C(O)c1cnc(NCc2cccnc2)nc1-c1cccnc1`: 875 s; `COc1cccc(CNC(=O)c2nnc(-c3ccc(S(=O)(=O)N4CCOCC4)cc3)o2)c1`: 822 s.
